≈ marks a conversion by molar mass, not a printed value.
Key:
[1] = target: recombinant Pseudomonas aeruginosa LpxC (Pseudomonas aeruginosa (strain ATCC 15692 / DSM 22644 / CIP 104116 / JCM 14847 / LMG 12228 / 1C / PRS 101 / PAO1), UniProt P47205); test: Inhibition of LpxC enzymatic activity (fluorescamine assay); assay type: biochemical; details: recombinant P. aeruginosa LpxC 5 nM, substrate 10 μM, 25° C., 120 minutes; read-out: IC50
In short: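 Recombinant P. aeruginosa LpxC (5 nM) with substrate UDP-3-O-(R-3-hydroxydecanoyl)-GlcNAc (10 μM), 120 min at 25 °C; compound 8 points, 4-fold dilution, 0.61-10,000 nM. Product detected by fluorescamine (ex 390/em 495 nm) after stopping with pH 8.0 phosphate; % inhibition versus DMSO control.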

E. coli ATCC 25922 = test: Antibacterial activity, MIC by broth microdilution (CLSI); assay type: cell-based; details: Escherichia coli, ATCC25922; E. coli ATCC 25922, 35° C., 18 to 24 hours; read-out: MIC(E. coli)
In short: (§1)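 Broth microdilution per CLSI, compound at 64-0.06 μg/mL final in twofold steps (1% DMSO from 100× working solutions). Inoculum 5×10^5 cfu/ml; plates incubated at 35° C for 18-24 hours.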

K. pneumoniae ATCC13883 = test: as above; assay type: cell-based; details: Klebsiella pneumoniae; K. pneumoniae ATCC13883, 35° C., 18 to 24 hours; read-out: MIC(K. Pneumoniae)
In short: as §1

## C[C@H](O)c1nccn1Cc1cc(-c2ccc(C#Cc3ccc(CN4CCS(=O)(=O)CC4)cc3)cc2)on1 [Example 50, (S)-4-(4-((4-(3-((2-(1-hydroxyethyl)-1H-imidazol-1-yl)methyl)isoxazol-5-yl)phenyl)ethynyl)benzyl)thiomorpholine 1,1-dioxide]
[1]
  IC50: 22.2 nM
E. coli ATCC 25922
  MIC: 2 µg/mL (≈ 3.87 µM)
K. pneumoniae ATCC13883
  MIC: 4 µg/mL (≈ 7.74 µM)

## C[C@H](O)c1nccn1Cc1cc(-c2ccc(C#Cc3ccc(CN4CCC(N5CCOCC5)CC4)cc3)cc2)on1 [Example 51, (S)-1-(1-((5-(4-((4-((4-morpholinopiperidin-1-yl)methyl)phenyl)ethynyl)phenyl)isoxazol-3-yl)methyl)-1H-imidazol-2-yl)ethan-1-ol]
[1]
  IC50: 6.7 nM
E. coli ATCC 25922
  MIC: 2 µg/mL (≈ 3.63 µM)
K. pneumoniae ATCC13883
  MIC: 8 µg/mL (≈ 14.5 µM)

## C[C@H](O)c1nccn1Cc1cc(-c2ccc(C#Cc3ccc(CN4CC(C#N)C4)cc3)cc2)on1 [Example 52, (S)-1-(4-((4-(3-((2-(1-hydroxyethyl)-1H-imidazol-1-yl)methyl)isoxazol-5-yl)phenyl)ethynyl)benzyl)azetidin-3-carbonitrile]
[1]
  IC50: 11.2 nM
E. coli ATCC 25922
  MIC: 0.25 µg/mL (≈ 0.539 µM)
K. pneumoniae ATCC13883
  MIC: 1 µg/mL (≈ 2.16 µM)

## C[C@H](O)c1nccn1Cc1cc(-c2ccc(C#Cc3ccc(CN4CC(C(N)=O)C4)cc3)cc2)on1 [Example 53, (S)-1-(4-((4-(3-((2-(1-hydroxyethyl)-1H-imidazol-1-yl)methyl)isoxazol-5-yl)phenyl)ethynyl)benzyl)azetidin-3-carboxamide]
[1]
  IC50: 13.7 nM
E. coli ATCC 25922
  MIC: 1 µg/mL (≈ 2.08 µM)
K. pneumoniae ATCC13883
  MIC: 4 µg/mL (≈ 8.31 µM)

## C[C@H](O)c1nccn1Cc1cc(-c2ccc(C#Cc3ccc(CN4CCNC(=O)C4)cc3)cc2)on1 [Example 54, (S)-4-(4-((4-(3-((2-(1-hydroxyethyl)-1H-imidazol-1-yl)methyl)isoxazol-5-yl)phenyl)ethynyl)benzyl)piperazin-2-one]
[1]
  IC50: 16.2 nM
E. coli ATCC 25922
  MIC: 2 µg/mL (≈ 4.15 µM)
K. pneumoniae ATCC13883
  MIC: 4 µg/mL (≈ 8.31 µM)

## C[C@H](O)c1nccn1Cc1cc(-c2ccc(C#Cc3ccc(CNCCC(=O)O)cc3)cc2)on1 [Example 55, (S)-3-((4-((4-(3-((2-(1-hydroxyethyl)-1H-imidazol-1-yl)methyl)isoxazol-5-yl)phenyl)ethynyl)benzyl)amino)propanoic acid]
[1]
  IC50: 24.4 nM
E. coli ATCC 25922
  MIC: 8 µg/mL (≈ 17 µM)
K. pneumoniae ATCC13883
  MIC: 8 µg/mL (≈ 17 µM)

## C[C@H](O)c1nccn1Cc1cc(-c2ccc(C#Cc3ccc(CN4CCC(CO)CC4)cc3)cc2)on1 [Example 56, (S)-1-(1-((5-(4-((4-((4-(hydroxymethyl)piperidin-1-yl)methyl)phenyl)ethynyl)phenyl)isoxazol-3-yl)methyl)-1H-imidazol-2-yl)ethan-1-ol]
[1]
  IC50: 14.7 nM
E. coli ATCC 25922
  MIC: 2 µg/mL (≈ 4.03 µM)
K. pneumoniae ATCC13883
  MIC: 4 µg/mL (≈ 8.05 µM)

## C[C@H](O)c1nccn1Cc1cc(-c2ccc(C#Cc3ccc(CNCCN)cc3)cc2)on1 [Example 57, (S)-1-(1-((5-(4-((4-(((2-aminoethyl)amino)methyl)phenyl)ethynyl)phenyl)isoxazol-3-yl)methyl)-1H-imidazol-2-yl)ethan-1-ol]
[1]
  IC50: 14.1 nM
E. coli ATCC 25922
  MIC: 2 µg/mL (≈ 4.53 µM)
K. pneumoniae ATCC13883
  MIC: 4 µg/mL (≈ 9.06 µM)

## C[C@H](O)c1nccn1Cc1cc(-c2ccc(C#Cc3ccc(CCC(=O)O)nc3)cc2)on1 [Example 58, (S)-3-(5-((4-(3-((2-(1-hydroxyethyl)-1H-imidazol-1-yl)methyl)isoxazol-5-yl)phenyl)ethynyl)pyridin-2-yl)propanoic acid]
[1]
  IC50: 22 nM
E. coli ATCC 25922
  MIC: 4 µg/mL (≈ 9.04 µM)
K. pneumoniae ATCC13883
  MIC: 8 µg/mL (≈ 18.1 µM)

## C[C@H](O)c1nccn1Cc1cc(-c2ccc(C#Cc3ccc(CNCCS(C)(=O)=O)nc3)cc2)on1 [Example 59, (S)-1-(1-((5-(4-((6-(((2-(methylsulfonyl)ethyl)amino)methyl)pyridin-3-yl)ethynyl)phenyl)isoxazol-3-yl)methyl)-1H-imidazol-2-yl)ethan-1-ol]
[1]
  IC50: 21.8 nM
E. coli ATCC 25922
  MIC: 2 µg/mL (≈ 3.96 µM)
K. pneumoniae ATCC13883
  MIC: 8 µg/mL (≈ 15.8 µM)

## C[C@H](O)c1nccn1Cc1cc(-c2ccc(C#Cc3ccc(CNCCO)nc3)cc2)on1 [Example 60]
[1]
  IC50: 26.4 nM
E. coli ATCC 25922
  MIC: 2 µg/mL (≈ 4.51 µM)
K. pneumoniae ATCC13883
  MIC: 4 µg/mL (≈ 9.02 µM)

## C[C@H](O)c1nccn1Cc1cc(-c2ccc(C#Cc3ccc(CNCC(N)=O)nc3)cc2)on1 [Example 61]
[1]
  IC50: 74.2 nM
E. coli ATCC 25922
  MIC: 1 µg/mL (≈ 2.19 µM)
K. pneumoniae ATCC13883
  MIC: 4 µg/mL (≈ 8.76 µM)

## C[C@H](O)c1nccn1Cc1cc(-c2ccc(C#Cc3ccc(CC(N)=O)nc3)cc2)on1 [Example 62, (S)-2-(5-((4-(3-((2-(1-hydroxyethyl)-1H-imidazol-1-yl)methyl)isoxazol-5-yl)phenyl)ethynyl)pyridin-2-yl)acetamide]
[1]
  IC50: 21.3 nM
E. coli ATCC 25922
  MIC: 1 µg/mL (≈ 2.34 µM)
K. pneumoniae ATCC13883
  MIC: 4 µg/mL (≈ 9.36 µM)

## C[C@H](O)c1nccn1Cc1cc(-c2ccc(C#Cc3cccc(C(N)=O)c3)cc2)on1 [Example 63, (S)-3-((4-(3-((2-(1-hydroxyethyl)-1H-imidazol-1-yl)methyl)isoxazol-5-yl)phenyl)ethynyl)benzamide]
[1]
  IC50: 65.1 nM
E. coli ATCC 25922
  MIC: 2 µg/mL (≈ 4.85 µM)
K. pneumoniae ATCC13883
  MIC: 4 µg/mL (≈ 9.7 µM)

## C[C@H](O)c1nccn1Cc1cc(-c2ccc(C#Cc3cccc(OCC(N)=O)c3)cc2)on1 [Example 64, (S)-2-(3-((4-(3-((2-(1-hydroxyethyl)-1H-imidazol-1-yl)methyl)isoxazol-5-yl)phenyl)ethynyl)phenoxy)acetamide]
[1]
  IC50: 21.6 nM
E. coli ATCC 25922
  MIC: 4 µg/mL (≈ 9.04 µM)
K. pneumoniae ATCC13883
  MIC: 2 µg/mL (≈ 4.52 µM)

## C[C@H](O)c1nccn1Cc1cc(-c2ccc(C#Cc3ccc(OCCCN4CCOCC4)cc3)cc2)on1 [Example 75, (S)-1-(1-((5-(4-((4-(3-morpho-linopropoxy)phenyl)ethynyl)phenyl)isoxazol-3-yl)methyl)-1H-imidazol-2-yl)ethan-1-ol]
[1]
  IC50: 61.2 nM
E. coli ATCC 25922
  MIC: 1 µg/mL (≈ 1.95 µM)
K. pneumoniae ATCC13883
  MIC: 2 µg/mL (≈ 3.9 µM)

## CCOC(=O)CC1CN(Cc2ccc(C#Cc3ccc(-c4cc(Cn5ccnc5[C@H](C)O)no4)cc3)cc2)C1 [Example 111, Ethyl (S)-2-(1-(4-((4-(3-((2-(1-hydroxyethyl)-1H-imidazol-1-yl)methyl)isoxazol-5-yl)phenyl)ethynyl)benzyl)azetidin-3-yl)acetate]
[1]
  IC50: 8.59 nM
E. coli ATCC 25922
  MIC: 1 µg/mL (≈ 1.91 µM)
K. pneumoniae ATCC13883
  MIC: 1 µg/mL (≈ 1.91 µM)

## C[C@H](O)c1nccn1Cc1cc(-c2ccc(C#Cc3ccc(CN4CCNC(=O)C4)nc3)cc2)on1 [Example 114, (S)-4-((5-((4-(3-((2-(1-hydroxyethyl)-1H-imidazol-1-yl)methyl)isoxazol-5-yl)phenyl)ethynyl)pyridin-2-yl)methyl)piperazin-2-one]
[1]
  IC50: 10.5 nM
E. coli ATCC 25922
  MIC: 2 µg/mL (≈ 4.14 µM)
K. pneumoniae ATCC13883
  MIC: 8 µg/mL (≈ 16.6 µM)

## C[C@H](O)c1nccn1Cc1cc(-c2ccc(C#Cc3ccc(CN4CC(CC(=O)O)C4)nc3)cc2)on1 [Example 115, (S)-2-(1-((5-((4-(3-((2-(1-hydroxyethyl)-1H-imidazol-1-yl)methyl)isoxazol-5-yl)phenyl)ethynyl)pyridin-2-yl)methyl)azetidin-3-yl)acetic acid]
[1]
  IC50: 24.5 nM
E. coli ATCC 25922
  MIC: 2 µg/mL (≈ 4.02 µM)
K. pneumoniae ATCC13883
  MIC: 8 µg/mL (≈ 16.1 µM)
